Data on six molecules can be found in patent publication US20040138245A1, “Product comprising mikanolide, dihydromikanolide or an analogue thereof combine with another anti-cancer agent for therapeutic use in cancer treatment” (priority 2001, published 2004).

For this assay, the system named is HT-29 (human colon cancer cells). The experiment in a line: Measurement of cellular proliferation in vitro (WST1 colorimetric test, 120 hours). Format: cell-based. The following applies: HT29 cells. The method, then:
The cell line HT-29 (human colon cancer cells) was acquired from the American Tissue Culture Collection (Rockville, Md., USA).
The HT-29 cells (4000 cells/wells) are cultured on 96-well plates.
On day 0, these cells are seeded in 90 μl of Dulbecco's modified Eagle medium (Gibco-Brl, Cergy-Pontoise, France) completed with 10% of foetal calf serum inactivated by heating (Gibco-Brl, Cergy-Pontoise, France), 50000 units/l of penicillin and 50 mg/l of streptomycin (Gibco-Brl, Cergy-Pontoise, France), and 2 mM of glutamine (Gibco-Brl, Cergy-Pontoise, France).
The cells were treated simultaneously with concentrations of the compounds to be tested singly or in combination for 120 hours.
At the end of the of this period, quantification of the cellular proliferation is evaluated by colorimetric test based on the cleavage of the tetrazolium salt WST1 by the mitochondrial […] in the living cells leading to the formation of formazan (Boehringer Mannheim, Meylan, France). These tests are carried out four times with 6 determinations for each single product and for each combination tested. This allows determination of the number of living cells at the end of each treatment.
In general terms: Formazan colour is commonly taken as a measure of viable cells.

Where “and” joins values, the source holds several entries; their conditions need not be identical. Identical values can stand only once.

“4-(2-bromophenyl)-1-(2-(1-((4-cyano-3-methoxy)phenylmethyl)imidazo-5-yl)-1-oxoethyl)-1,2-dihydro-8-fluoroimidazol[1,2a][1,4]-benzodiazepine [Example B4]”: the “% of living cells” value (single compound at 5 μM) is 93% and 78%. Consider `C[C@H]1C(=O)O[C@H]2C[C@]3(C)O[C@@H]3[C@@H]3O[C@@H]3C3=C[C@@H](OC3=O)[C@@H]21` [Example A1, dihydromikanolide], for which the “% of living cells” value (single compound at 5 μg/ml) was 61% and 64%. With `[NH2][Pt]([NH2])([Cl])[Cl]` [Example B1, cisplatin, reference compound], the “% of living cells” value (single compound at 6.25 μM) was found to be 48%.

Consider `NC(CS)C(=O)N1CCn2cc(-c3ccccc3)nc2C1CC1CCCCC1` (stereo not drawn) [Example B2, 7-(2-amino-1-oxo-3-thiopropyl)-8-(cyclohexylmethyl)-2-phenyl-5,6,7,8-tetrahydroimidazo[1,2a]pyrazine], for which, for the setting “single compound at 25 μM”, the “% of living cells” value is 37% and 64%. Regarding `CC(C)[C@H](CO)Nc1nc(NCc2cccnc2)n2ncc(Br)c2n1` [Example B3, 8-bromo-2-(1R-isopropyl-2-hydroxyethylamino)-4-(3-pyridylmethylamino)pyrazolo[1,5-a]-1,3,5-triazine], the “% of living cells” value (single compound at 100 nM) amounted to 104%. Consider “hydrochloride of 8-(dimethylamino)-3,10a-dimethyl-2,6-dioxodecahydro-4,7-methenofuro[3,2-c]oxireno[f]oxacycloundecin-9-yl 2-naphthylcarbamate [Example A2]”, for which, under “single compound at 5 μM”, the “% of living cells” value is 67% and 72% and 55%.
